For one data set, the target named is IKZF1 protein (Homo sapiens (Human), UniProt Q13422+Q96SW2). Nature of the data set: Western-blot assay of substrate protein degradation in hPBMC, IKZF1. It is filed as cell-based. The conditions noted are these: hPBMC cells, compound 500 nM, 24 hours, Western blot. Background: A western blot detects proteins with antibodies after separation by electrophoresis.

A further data set deals with MM.1S cells. Briefly: Tumor cell proliferation IC50 (CCK-8), MM.1S.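 Further: viability of cultured cells read by CCK-8 reagent after compound exposure, growth inhibition curves fitted to derive IC50.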 The conditions noted are these: Homo sapiens, MM1.S, 72 h, read-out: IC50 for inhibiting the proliferation of tumor cells, MM.1S.
For a further data set, the target named is GSPT1 protein (Homo sapiens (Human), UniProt P15170+Q96SW2). Briefly: Western-blot assay of substrate protein degradation in hPBMC, GSPT1. It is filed as cell-based. The conditions noted are these: hPBMC cells, compound 500 nM, 24 hours, Western blot.
For the next data set, the system named is Kasumi-1 cells. Briefly: Tumor cell proliferation IC50 (CCK-8), Kasumi-1. The conditions noted are these: Homo sapiens, Kasumi 1, 72 h, read-out: IC50 for inhibiting the proliferation of tumor cells, Kasumi-1.
Data set [1] concerns the target human Cereblon WT GST-tagged protein (Homo sapiens (Human), UniProt Q96SW2). Nature of the data set: CRBN-binding affinity, HTRF (CEREBLON BINDING kit). In short, it runs like this: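 GST-tagged human WT Cereblon incubated with compound, then Thalidomide-Re tracer and anti-GST Eu antibody added. Displacement read by HTRF, reported as CRBN binding inhibition rate against blank control wells without protein.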
For orientation: Time-resolved FRET reads energy transfer from a long-lived donor to a nearby acceptor.

Another data set concerns Mino cells. Briefly: Tumor cell proliferation IC50 (CCK-8), Mino.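 Further: cell viability assessed with CCK-8 reagent after compound exposure, IC50 derived from plotted growth inhibition curves.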 The conditions noted are these: Homo sapiens, 72 h, read-out: IC50 for inhibiting the proliferation of tumor cells, Mino.
The next data set deals with CCRF-CEM cells. Briefly: Tumor cell proliferation IC50 (CCK-8), CCRF-CEM.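 Further: cell viability measured with CCK-8 reagent after compound treatment, IC50 taken from plotted growth inhibition curves.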 The conditions noted are these: Homo sapiens, 96 h, read-out: IC50 for inhibiting the proliferation of tumor cells, CCRF-CEM.
Another data set relates to MV-4-11 cells. Briefly: Tumor cell proliferation IC50 (CCK-8), MV-4-11. The conditions noted are these: Homo sapiens, MV4-11, 96 h, read-out: IC50 for inhibiting the proliferation of tumor cells, MV-4-11.
The next data set concerns the target IKZF3 protein (Homo sapiens (Human), UniProt Q96SW2+Q9UKT9). Briefly: Western-blot assay of substrate protein degradation in hPBMC, IKZF3. The format is cell-based. The conditions noted are these: hPBMC cells, compound 500 nM, 24 hours, Western blot.
The next data set has as its system Daudi cells. Nature of the data set: Tumor cell proliferation IC50 (CCK-8), Daudi.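 Further: cell viability read with CCK-8 reagent after compound exposure of Daudi cells, IC50 derived from plotted growth inhibition curves.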 The conditions noted are these: Homo sapiens, read-out: IC50 for inhibiting the proliferation of tumor cells, Daudi.
The next data set has as its system TMD8 cells. Briefly: Tumor cell proliferation IC50 (CCK-8), TMD8. The conditions noted are these: Homo sapiens, TMD8, 72 h, read-out: IC50 for inhibiting the proliferation of tumor cells, TMD8.
The next data set concerns MM.1R cells. Briefly: Tumor cell proliferation IC50 (CCK-8), MM.1R. The conditions noted are these: Homo sapiens, 72 h, read-out: IC50 for inhibiting the proliferation of tumor cells, MM.1R.
For a further data set, the system named is Ramos cells. Nature of the data set: Tumor cell proliferation IC50 (CCK-8), Ramos. The conditions noted are these: Homo sapiens, 72 h, read-out: IC50 for inhibiting the proliferation of tumor cells, Ramos.
A further data set deals with SW620 cells. Briefly: Tumor cell proliferation IC50 (CCK-8), SW620. The conditions noted are these: Homo sapiens, SW-620, 96 h, read-out: IC50 for inhibiting the proliferation of tumor cells, SW620.
A short description of data set [2]: Pharmacokinetic study, oral administration, mouse plasma. It is filed as in vivo, mice. The conditions noted are these: p.o. 10 mg/kg. The procedure:
The experimental animals used can be those commonly used in pharmacokinetic experiments, e.g., adult and healthy rodents (e.g., mice, rats (such as Sprague-Dawley (SD) rats), guinea pigs) or non-rodents (rabbits, dogs, and monkeys). In the present disclosure, mice were used as the experimental animals.
The experimental animals were divided into two groups: a control group (for collecting blank plasma) and an orally administered group (dosed at 10 mg/kg or 30 mg/kg). Blood samples were collected at predetermined sampling time points after administration, such as 0.25 h, 0.5 h, 1 h, 2 h, 4 h, 8 h, and 24 h post-dosing. Blank plasma was collected from the control group.
Plasma samples were preprocessed before analysis: 10 μL of 50% acetonitrile and 200 μL of internal standard solution (containing 50 ng/mL dexamethasone in acetonitrile) were added to 10 μL of plasma samples. For the blank control group, the same volume of acetonitrile was added instead of the internal standard. The processed samples were vortexed, centrifuged, and the supernatant was taken for LC-MS/MS injection analysis.
After preparing standard curves and quality control (QC) samples, the concentrations of the compounds in the plasma samples were determined by LC-MS/MS analysis. Based on the plasma concentration data obtained from LC-MS/MS analysis, the pharmacokinetic parameters of the test compounds were calculated using the non-compartmental model in the pharmacokinetic calculation software WinNonlin v8.1.

The subject of a further data set is MDA-MB-231 cells. Nature of the data set: Tumor cell proliferation IC50 (CCK-8), MDA-MB-231. The conditions noted are these: Homo sapiens, MDA-MB-231, 96 h, read-out: IC50 for inhibiting the proliferation of tumor cells, MDA-MB-231.

Broadly, the AUC(0-t) is exposure summed from dosing to a finite time, without extrapolation to infinity. Lower therefore signals low exposure.

IKZF3 protein, sequence (Q9UKT9 whole entry): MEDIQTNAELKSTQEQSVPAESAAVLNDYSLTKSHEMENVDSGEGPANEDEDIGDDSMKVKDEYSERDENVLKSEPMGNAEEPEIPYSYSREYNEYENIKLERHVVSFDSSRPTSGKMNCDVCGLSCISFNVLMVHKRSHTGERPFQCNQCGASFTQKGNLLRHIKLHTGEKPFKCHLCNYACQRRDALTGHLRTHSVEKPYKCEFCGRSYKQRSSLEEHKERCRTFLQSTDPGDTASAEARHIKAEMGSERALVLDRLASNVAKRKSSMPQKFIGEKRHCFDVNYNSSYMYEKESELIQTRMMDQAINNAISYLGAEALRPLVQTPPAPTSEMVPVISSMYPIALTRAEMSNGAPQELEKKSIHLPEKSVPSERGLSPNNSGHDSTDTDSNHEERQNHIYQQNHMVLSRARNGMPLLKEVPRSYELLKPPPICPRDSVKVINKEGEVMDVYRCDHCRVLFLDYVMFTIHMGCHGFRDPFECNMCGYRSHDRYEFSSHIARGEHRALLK
IKZF3 protein, sequence (Q96SW2 whole entry): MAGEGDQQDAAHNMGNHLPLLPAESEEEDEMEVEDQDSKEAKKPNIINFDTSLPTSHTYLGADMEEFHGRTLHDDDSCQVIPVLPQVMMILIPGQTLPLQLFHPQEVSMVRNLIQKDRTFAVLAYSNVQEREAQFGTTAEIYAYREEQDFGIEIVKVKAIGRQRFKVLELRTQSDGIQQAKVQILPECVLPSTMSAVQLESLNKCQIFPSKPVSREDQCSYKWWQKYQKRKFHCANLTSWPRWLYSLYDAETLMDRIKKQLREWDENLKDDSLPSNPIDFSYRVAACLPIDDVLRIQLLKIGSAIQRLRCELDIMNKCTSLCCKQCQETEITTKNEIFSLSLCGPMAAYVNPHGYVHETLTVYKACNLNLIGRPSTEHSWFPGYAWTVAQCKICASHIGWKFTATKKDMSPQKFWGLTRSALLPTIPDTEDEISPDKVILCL
IKZF3 protein, sequence (Q16531 whole entry partner): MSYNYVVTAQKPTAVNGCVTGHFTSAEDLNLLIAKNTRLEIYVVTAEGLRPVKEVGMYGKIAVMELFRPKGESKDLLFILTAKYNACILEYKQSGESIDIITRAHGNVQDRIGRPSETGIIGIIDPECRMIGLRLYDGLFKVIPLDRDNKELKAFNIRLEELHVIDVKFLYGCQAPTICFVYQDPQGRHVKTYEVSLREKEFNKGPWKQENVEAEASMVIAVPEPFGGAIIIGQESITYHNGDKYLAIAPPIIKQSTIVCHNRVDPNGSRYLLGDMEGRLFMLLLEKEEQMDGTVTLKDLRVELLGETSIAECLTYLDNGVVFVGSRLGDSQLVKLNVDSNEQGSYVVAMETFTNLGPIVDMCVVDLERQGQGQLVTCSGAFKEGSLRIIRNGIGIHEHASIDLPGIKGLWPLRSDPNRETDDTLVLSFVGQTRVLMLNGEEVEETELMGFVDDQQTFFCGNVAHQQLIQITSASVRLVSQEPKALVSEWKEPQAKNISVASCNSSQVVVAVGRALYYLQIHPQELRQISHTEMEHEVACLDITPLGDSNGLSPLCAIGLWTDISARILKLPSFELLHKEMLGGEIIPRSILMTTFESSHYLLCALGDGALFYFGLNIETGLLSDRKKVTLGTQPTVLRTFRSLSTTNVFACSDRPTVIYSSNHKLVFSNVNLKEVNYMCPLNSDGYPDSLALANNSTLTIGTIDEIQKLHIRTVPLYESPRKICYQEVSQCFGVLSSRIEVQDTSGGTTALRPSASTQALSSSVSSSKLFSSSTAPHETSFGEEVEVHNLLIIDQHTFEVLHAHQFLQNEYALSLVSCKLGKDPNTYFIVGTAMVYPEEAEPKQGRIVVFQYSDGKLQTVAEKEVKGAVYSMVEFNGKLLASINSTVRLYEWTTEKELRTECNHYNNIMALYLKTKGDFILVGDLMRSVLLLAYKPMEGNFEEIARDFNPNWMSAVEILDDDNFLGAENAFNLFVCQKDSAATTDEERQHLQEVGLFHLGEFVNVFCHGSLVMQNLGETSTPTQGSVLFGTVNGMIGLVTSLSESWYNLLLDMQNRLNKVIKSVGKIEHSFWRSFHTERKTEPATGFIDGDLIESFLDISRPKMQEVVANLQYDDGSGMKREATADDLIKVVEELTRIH
GSPT1 protein, sequence (P15170 whole entry): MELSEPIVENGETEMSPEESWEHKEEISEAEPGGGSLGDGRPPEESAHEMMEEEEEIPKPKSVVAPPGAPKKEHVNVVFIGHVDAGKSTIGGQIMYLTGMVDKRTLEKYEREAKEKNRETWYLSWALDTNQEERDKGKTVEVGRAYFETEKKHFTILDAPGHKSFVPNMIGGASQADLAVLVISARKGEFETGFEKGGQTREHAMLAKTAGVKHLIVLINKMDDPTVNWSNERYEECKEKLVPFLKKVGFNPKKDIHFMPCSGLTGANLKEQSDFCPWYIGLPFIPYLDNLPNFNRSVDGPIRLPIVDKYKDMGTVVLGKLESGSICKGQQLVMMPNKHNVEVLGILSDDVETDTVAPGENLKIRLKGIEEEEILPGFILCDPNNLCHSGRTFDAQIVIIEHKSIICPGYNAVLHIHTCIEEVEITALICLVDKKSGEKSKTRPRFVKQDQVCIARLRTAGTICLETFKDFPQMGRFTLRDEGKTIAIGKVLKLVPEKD
GSPT1 protein, sequence (Q96SW2 whole entry): as the sequence (Q96SW2 whole entry) above
GSPT1 protein, sequence (Q16531 whole entry partner): as the sequence (Q16531 whole entry partner) above
IKZF1 protein, sequence (Q13422 whole entry): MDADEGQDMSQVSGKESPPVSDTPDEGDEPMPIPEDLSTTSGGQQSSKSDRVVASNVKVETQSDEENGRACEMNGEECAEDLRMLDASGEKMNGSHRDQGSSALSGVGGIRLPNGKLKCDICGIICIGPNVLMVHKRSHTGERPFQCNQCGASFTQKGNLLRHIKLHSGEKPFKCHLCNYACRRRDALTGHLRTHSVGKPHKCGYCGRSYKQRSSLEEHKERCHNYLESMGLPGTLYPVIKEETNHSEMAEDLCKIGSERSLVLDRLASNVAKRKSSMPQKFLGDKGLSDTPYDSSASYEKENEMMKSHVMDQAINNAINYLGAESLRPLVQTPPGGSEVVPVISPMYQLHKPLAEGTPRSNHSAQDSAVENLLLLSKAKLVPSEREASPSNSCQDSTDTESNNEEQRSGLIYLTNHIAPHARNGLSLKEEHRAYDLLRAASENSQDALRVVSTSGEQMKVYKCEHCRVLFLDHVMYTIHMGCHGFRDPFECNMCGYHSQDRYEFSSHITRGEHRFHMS
IKZF1 protein, sequence (Q96SW2 whole entry): as the sequence (Q96SW2 whole entry) above
IKZF1 protein, sequence (Q16531 whole entry partner): as the sequence (Q16531 whole entry partner) above
human Cereblon WT GST-tagged protein, sequence (Q96SW2 whole entry): as the sequence (Q96SW2 whole entry) above
Procedure for CCRF-CEM cells: (§1) The tumor cells used herein were cultured in a cell culture medium listed in table A at 37° C. in an incubator with 5% CO2.
(§2) After the cells were treated with the compounds of the present disclosure for a period of time, the cell viability detection reagent was added to the culture medium for cell viability assessment according to the instructions provided with the CCK-8 kit. […] The growth inhibition of the compounds of the present disclosure on cells was plotted by Prism Graphpad software, and the IC50 values of the compounds of the present disclosure were calculated therefrom.
Procedure for Daudi cells: as §1, §2
Procedure for Kasumi-1 cells: as §1, §2
Procedure for MDA-MB-231 cells: Prior to experimentation, all cells used were correctly identified by STR profiling, and tested negative for mycoplasma through routine screenings.
as §2
Procedure for MM.1R cells: as §1, §2
Procedure for MM.1S cells: as §1, §2
Procedure for MV-4-11 cells: as §1, §2
Procedure for Mino cells: as §1, §2
Procedure for Ramos cells: as §1, §2
Procedure for SW620 cells: as §1, §2
Procedure for TMD8 cells: as §1, §2

With `O=C1CCC(N2Cc3cc(C=C4CN(C(=O)c5ccccc5-c5ccc(Cl)cc5)C4)ccc3C2=O)C(=O)N1` (centres unmarked) [GT-05482, 3-(5-((1-(4′-chloro-[1,1′-biphenyl]-2-carbonyl)azetidin-3-ylidene)methyl)-1-oxoisoindolin-2-yl)piperidine-2,6-dione], the “residual substrate protein level, IKZF1” value at IKZF1 protein is “B (B represents a residual substrate protein level of >50%)”. Further, the IC50 in the data set with MM.1S cells is 0.005 to 0.01 µM; with Kasumi-1 cells it was 0.01 to 0.05 µM; in data set [1], 0.33 µM; with Mino cells, 0.005 to 0.01 µM; in the data set with CCRF-CEM cells, 0.005 to 0.01 µM; in the data set with MV-4-11 cells, 0.005 to 0.01 µM. In addition, in the data set on Daudi cells, the IC50 was in the range of 0.01 to 0.05 µM. Also, the “residual substrate protein level, GSPT1” value at GSPT1 protein is “A (A represents a residual substrate protein level of <50%)”. For the same compound, the “residual substrate protein level, IKZF3” value at IKZF3 protein is listed as “B (B represents a residual substrate protein level of >50%)”.

`CC1(C)CCC(CN2CCN(Cc3ccc4c(c3)CN(C3CCC(=O)NC3=O)C4=O)CC2)=C(c2ccc(F)cc2)C1` (centres unmarked) [GT-03454, 3-(5-((4-((4′-fluoro-5,5-dimethyl-3,4,5,6-tetrahydro-[1,1′-biphenyl]-2-yl)methyl)piperazin-1-yl)methyl)-1-oxoisoindolin-2-yl)piperidine-2,6-dione]: at IKZF1 protein, the “residual substrate protein level, IKZF1” value is “A (A represents a residual substrate protein level of <50%)”. For the same compound, on GSPT1 protein, the “residual substrate protein level, GSPT1” value is “A (A represents a residual substrate protein level of <50%)”. Besides, the IC50 in data set [1] is 0.41 µM; in the data set on TMD8 cells, 1 to 5 µM; in the data set with CCRF-CEM cells, 0.01 to 0.05 µM; in the data set on MM.1R cells it was 0.1 to 0.5 µM; with Ramos cells, 1 to 5 µM. Besides, at IKZF3 protein, the “residual substrate protein level, IKZF3” value is listed as “A (A represents a residual substrate protein level of <50%)”.

`CC1(C)CCC(CN2CCN(Cc3cc4c(cc3F)C(=O)N(C3CCC(=O)NC3=O)C4)CC2)=C(c2ccc(F)cc2)C1` (centres unmarked) [GT-05391, 3-(6-fluoro-5-((4-((4′-fluoro-5,5-dimethyl-3,4,5,6-tetrahydro-[1,1′-biphenyl]-2-yl)methyl)piperazin-1-yl)methyl)-1-oxoisoindolin-2-yl)piperidine-2,6-dione]: the “residual substrate protein level, IKZF1” value on IKZF1 protein is “A (A represents a residual substrate protein level of <50%)”. Moreover, the IC50 with MM.1S cells is 0.005 to 0.01 µM; in the data set with Kasumi-1 cells, 0.01 to 0.05 µM; in data set [1], 0.57 µM; in the data set with Mino cells it was 0.005 to 0.01 µM; in the data set with CCRF-CEM cells it was below 0.005 µM; in the data set with MV-4-11 cells it was below 0.005 µM. Besides, in the data set on Daudi cells, the IC50 lay in the range of 0.01 to 0.05 µM. In addition, on GSPT1 protein, the “residual substrate protein level, GSPT1” value is given as “A (A represents a residual substrate protein level of <50%)”. On IKZF3 protein, the “residual substrate protein level, IKZF3” value was “A (A represents a residual substrate protein level of <50%)”.

Consider `CC1(C)CCC(CN2CCN(Cc3ccc4c(c3)CN(C3CCC(=O)NC3=O)C4=O)CC2)=C(c2ccc(Cl)cc2)C1` (centres unmarked) [GT-02785, 3-(5-((4-((4′-chloro-5,5-dimethyl-3,4,5,6-tetrahydro-[1,1′-biphenyl]-2-yl)methyl)piperazin-1-yl)methyl)-1-oxoisoindolin-2-yl)piperidine-2,6-dione], for which, at IKZF1 protein, the “residual substrate protein level, IKZF1” value is “A (A represents a residual substrate protein level of <50%)”. The IC50 is below 0.005 µM in the data set on MM.1S cells; 0.05 to 0.1 µM in the data set on Kasumi-1 cells; 0.05 to 0.1 µM in the data set with SW620 cells; 3.07 µM in data set [1]; 0.005 to 0.01 µM with Mino cells; 0.1 to 0.5 µM with TMD8 cells. For the same compound, the IC50 is 0.05 to 0.1 µM in the data set on MDA-MB-231 cells; 0.01 to 0.05 µM with CCRF-CEM cells; 0.024 µM in the data set with MV-4-11 cells; 0.01 to 0.05 µM in the data set with MM.1R cells; 0.1 to 0.5 µM with Ramos cells; 0.159 µM with Daudi cells. Further, the “residual substrate protein level, GSPT1” value at GSPT1 protein is “A (A represents a residual substrate protein level of <50%)”. Besides, the AUC(0-t) in [2] is above 0.5 µg·h/mL. In addition, the “residual substrate protein level, IKZF3” value on IKZF3 protein is recorded as “A (A represents a residual substrate protein level of <50%)”.

With `CC1(C)CCC(CN2CCN(Cc3ccc4c(c3F)CN(C3CCC(=O)NC3=O)C4=O)CC2)=C(c2ccc(F)cc2)C1` (centres unmarked) [GT-05390, 3-(4-fluoro-5-((4-((4′-fluoro-5,5-dimethyl-3,4,5,6-tetrahydro-[1,1′-biphenyl]-2-yl)methyl)piperazin-1-yl)methyl)-1-oxoisoindolin-2-yl)piperidine-2,6-dione], the “residual substrate protein level, IKZF1” value at IKZF1 protein is “A (A represents a residual substrate protein level of <50%)”. Besides, the IC50 with MM.1S cells is 0.01 to 0.05 µM; in data set [1], 0.5 µM; in the data set on Mino cells it was 0.01 to 0.05 µM; in the data set with CCRF-CEM cells, 0.05 to 0.1 µM; with MV-4-11 cells it was 0.1 to 0.5 µM. On GSPT1 protein, the “residual substrate protein level, GSPT1” value is “A (A represents a residual substrate protein level of <50%)”. Also, the “residual substrate protein level, IKZF3” value on IKZF3 protein is on record as “A (A represents a residual substrate protein level of <50%)”.

Take `O=C1CCC(N2C(=O)c3ccc(CN4CCN(Cc5ccccc5-c5ccc(Cl)cc5)CC4)cc3C2=O)C(=O)N1` (centres unmarked) [GT-05497, 5-((4-((4′-chloro-[1,1′-biphenyl]-2-yl)methyl)piperazin-1-yl)methyl)-2-(2,6-dioxopiperidin-3-yl)isoindoline-1,3-dione]: the “residual substrate protein level, IKZF1” value at IKZF1 protein is listed as “B (B represents a residual substrate protein level of >50%)”. In addition, the IC50 with MM.1S cells lay within 0.1 to 0.5 µM; in the data set with Kasumi-1 cells it was 0.1 to 0.5 µM; in the data set with Mino cells it was 0.1 to 0.5 µM; in the data set on CCRF-CEM cells, 0.05 to 0.1 µM; in the data set on MV-4-11 cells, 0.1 to 0.5 µM; with Daudi cells, 0.5 to 1 µM. Besides, the “residual substrate protein level, GSPT1” value on GSPT1 protein is listed as “A (A represents a residual substrate protein level of <50%)”. Further, at IKZF3 protein, the “residual substrate protein level, IKZF3” value was “A (A represents a residual substrate protein level of <50%)”.

On to `CC1(C)CCC(CN2CCN(Cc3cc(F)c4c(c3)CN(C3CCC(=O)NC3=O)C4=O)CC2)=C(c2ccc(Cl)cc2)C1` (centres unmarked) [GT-03469, 3-(5-((4-((4′-chloro-5,5-dimethyl-3,4,5,6-tetrahydro-[1,1′-biphenyl]-2-yl)methyl)piperazin-1-yl)methyl)-7-fluoro-1-oxoisoindolin-2-yl)piperidine-2,6-dione], for which the IC50 is 2.12 µM in data set [1], 0.1 to 0.5 µM with MDA-MB-231 cells and 1 to 5 µM in the data set on CCRF-CEM cells.

Take `O=C1CCC(N2Cc3cc(CC4CCN(C(=O)c5ccccc5-c5ccc(Cl)cc5)CC4)ccc3C2=O)C(=O)N1` (centres unmarked) [GT-05467, 3-(5-((1-(4′-chloro-[1,1′-biphenyl]-2-carbonyl)piperidin-4-yl)methyl)-1-oxoisoindolin-2-yl)piperidine-2,6-dione]: the “residual substrate protein level, IKZF1” value on IKZF1 protein is “B (B represents a residual substrate protein level of >50%)”. For the same compound, the IC50 in the data set with MM.1S cells is 0.01 to 0.05 µM; in the data set with Kasumi-1 cells, 0.01 to 0.05 µM; in [1] it was 0.52 µM; with Mino cells, 0.01 to 0.05 µM; with CCRF-CEM cells it was 0.005 to 0.01 µM; with MV-4-11 cells, 0.01 to 0.05 µM. Moreover, the IC50 in the data set on Daudi cells lay within 0.1 to 0.5 µM. Further, on GSPT1 protein, the “residual substrate protein level, GSPT1” value is on record as “A (A represents a residual substrate protein level of <50%)”. For the same compound, the “residual substrate protein level, IKZF3” value at IKZF3 protein was “B (B represents a residual substrate protein level of >50%)”.
